Assay results taken from patent US20230040770A1, “HETEROCYCLIC COMPOUND AND USE THEREOF” (TAKEDA PHARMACEUTICAL COMPANY LIMITED, priority 2019, published 2023).

Biological target: T1, human orexin type 2 receptor (Homo sapiens, UniProt O43614)
T1 construct: expressed in transfected cells
T1 sequence (O43614 1-444): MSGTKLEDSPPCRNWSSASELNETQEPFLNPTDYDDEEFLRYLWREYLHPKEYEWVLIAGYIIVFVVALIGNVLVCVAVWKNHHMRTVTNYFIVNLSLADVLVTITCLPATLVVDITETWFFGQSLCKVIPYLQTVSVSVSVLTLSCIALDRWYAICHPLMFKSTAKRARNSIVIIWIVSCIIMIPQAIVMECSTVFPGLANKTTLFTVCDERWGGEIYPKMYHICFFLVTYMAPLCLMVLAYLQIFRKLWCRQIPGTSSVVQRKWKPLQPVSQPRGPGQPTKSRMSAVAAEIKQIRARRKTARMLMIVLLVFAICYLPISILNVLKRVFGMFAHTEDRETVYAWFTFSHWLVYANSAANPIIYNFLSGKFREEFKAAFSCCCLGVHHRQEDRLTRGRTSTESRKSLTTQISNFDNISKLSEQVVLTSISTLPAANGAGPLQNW
Test: Measurement of orexin type 2 receptor agonist activity (calcium indicator fluorescence, CHO cells forcibly expressing human OX2 receptor)
Format: cell-based
Settings: compound at 3 μM; 0% = DMSO, 100% = orexin A (human) 10 nM
Outline: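 CHO-dhfr cells stably expressing human OX2R, loaded with Fluo-4 AM (30 min 37 °C, then 30 min RT), then given test compound. Calcium fluorescence read by FDSS over ~2 min. Activity (%) scaled from DMSO (0%) to 10 nM final orexin A (100%).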

Point of comparison: `Cc1cccc(-c2cccc(C[C@H]3[C@@H](NS(C)(=O)=O)C(F)(F)CN3C(=O)C(C)(C)O)c2F)c1` [Example 25, N-[(2S,3R)-4,4-difluoro-2-[(2-fluoro-3′-methyl[1,1′-biphenyl]-3-yl)methyl]-1-(2-hydroxy-2-methylpropanoyl)pyrrolidin-3-yl]methanesulfonamide], “OX2R agonist activity (3 μM, %)” value 108%. Against it:
- CCS(=O)(=O)N[C@@H]1[C@H](Cc2cccc(-c3ccc(F)c(F)c3)c2F)N(C(=O)C2CCO2)CC1(F)F (stereo partly drawn) [Example 468, N-{(2S,3R)-4,4-difluoro-1-(oxetane-2-carbonyl)-2-[(2,3′,4′-trifluoro[1,1′-biphenyl]-3-yl)methyl]pyrrolidin-3-yl}ethanesulfonamide] — lower, 102%
- CCS(=O)(=O)N[C@H]1[C@@H](F)CN(C(=O)C2CC2)[C@H]1Cc1cccc(-c2ccccc2F)c1F [Example 518, N-{(2S,3R,4S)-1-(cyclopropanecarbonyl)-2-[(2,2′-difluoro[1,1′-biphenyl]-3-yl)methyl]-4-fluoropyrrolidin-3-yl}ethanesulfonamide] — lower, 98%
- CCS(=O)(=O)N[C@@H]1[C@H](Cc2cccc(-c3ccc(F)c(C)c3F)c2F)N(C(=O)C2CCO2)CC1(F)F (stereo partly drawn) [Example 474, N-{(2S,3R)-4,4-difluoro-1-(oxetane-2-carbonyl)-2-[(2,2′,4′-trifluoro-3′-methyl[1,1′-biphenyl]-3-yl)methyl]pyrroldiin-3-yl}ethanesulfonamide] — lower, 96%
- Cc1ccc(F)c(-c2cccc(C[C@H]3[C@@H](NS(=O)(=O)C4CC4)[C@@H](F)CN3C(=O)C3CCO3)c2F)c1 (stereo partly drawn) [Example 492, N-[(2S,3R,4S)-2-[(2,2′-difluoro-5′-methyl[1,1′-biphenyl]-3-yl)methyl]-4-fluoro-1-(oxetane-2-carbonyl)pyrrolidin-3-yl]cyclopropanesulfonamide] — lower, 90%
- CCS(=O)(=O)N[C@@H]1[C@H](Cc2cccc(-c3cccc(C(F)F)c3)c2F)N(C(=O)C2CCO2)CC1(F)F (stereo partly drawn) [Example 503, N-[(2S,3R)-2-{[3′-(difluoromethyl)-2-fluoro[1,1′-biphenyl]-3-yl]methyl}-4,4-difluoro-1-(oxetane-2-carbonyl)pyrrolidin-3-yl]ethanesulfonamide] — lower, 89%
- CCS(=O)(=O)N[C@@H]1[C@H](Cc2cccc(-c3cc(F)ccc3F)c2F)N(C(=O)[C@H]2CCCO2)CC1(F)F [Example 456, N-{(2S,3R)-4,4-difluoro-1-[(2R)-oxolane-2-carbonyl]-2-[(2,2′,5′-trifluoro[1,1′-biphenyl]-3-yl)methyl]pyrrolidin-3-yl}ethanesulfonamide] — lower, 77%
- O=C(C1CCO1)N1C[C@H](F)[C@H](NS(=O)(=O)C2CC2)[C@@H]1Cc1cccc(-c2cc(F)cc(F)c2)c1F (stereo partly drawn) [Example 493, N-{(2S,3R,4S)-4-fluoro-1-(oxetane-2-carbonyl)-2-[(2,3′,5′-trifluoro[1,1′-biphenyl]-3-yl)methyl]pyrrolidin-3-yl}cyclopropanesulfonamide] — lower, 95%
- CCS(=O)(=O)N[C@H]1[C@@H](F)CN(C(=O)C2CC2)[C@H]1Cc1cccc(-c2cccc(Cl)c2F)c1F [Example 520, N-[(2S,3R,4S)-2-[(3′-chloro-2,2′-difluoro[1,1′-biphenyl]-3-yl)methyl]-1-(cyclopropanecarbonyl)-4-fluoropyrrolidin-3-yl]ethanesulfonamide] — lower, 94%
- CS(=O)(=O)N[C@@H]1[C@H](Cc2csc(-c3cc(F)cc(F)c3)n2)N(C(=O)C2(O)CCC2)CC1(F)F (racemic) [Example 136, rac-N-[(2S,3R)-2-{[2-(3,5-difluorophenyl)-1,3-thiazol-4-yl]methyl}-4,4-difluoro-1-(1-hydroxycyclobutane-1-carbonyl)pyrrolidin-3-yl]methanesulfonamide] — lower, 87%
- CS(=O)(=O)N[C@@H]1[C@H](Cc2cccc(-c3cc(F)ccc3F)c2F)N(C(=O)[C@H]2CCO2)CC1(F)F [Example 122, N-{(2S,3R)-4,4-difluoro-1-((2R)-oxetane-2-carbonyl)-2-[(2,2′,5′-trifluoro[1,1′-biphenyl-]-3-yl)methyl]pyrrolidin-3-yl}methanesulfonamide] — lower, 89%
- Cc1cccc(-c2cccc(C[C@H]3[C@@H](NS(=O)(=O)C4CC4)C(F)(F)CN3C(=O)N(C)C)c2F)c1F [Example 521, (2S,3R)-3-[(cyclopropanesulfonyl)amino]-2-[(2,2′-difluoro-3′-methyl[1,1′-biphenyl]-3 yl)methyl]-4,4-difluoro-N,N-dimethylpyrrolidine-1-carboxamide] — lower, 97%
- Cc1cc(F)cc(-c2cccc(C[C@H]3[C@@H](NS(=O)(=O)C4CC4)C(F)(F)CN3C(=O)N(C)C)c2F)c1 [Example 522, (2S,3R)-3-[(cyclopropanesulfonyl)amino]-2-[(2,3′-difluoro-5′-methyl[1,1′-biphenyl]-3-yl)methyl]-4,4-difluoro-N,N-dimethylpyrrolidine-1-carboxamide] — lower, 97%
- CS(=O)(=O)N[C@@H]1[C@H](Cc2cccc(-c3ccccc3)c2F)N(C(=O)C2(O)CCC2)CC1(F)F [Example 76, N-[(2S,3R)-4,4-difluoro-2-[(2-fluoro[1,1′-biphenyl]-3-yl)methyl]-1-(1-hydroxycyclobutane-1-carbonyl)pyrrolidin-3-yl]methanesulfonamide] — lower, 98%
- CCS(=O)(=O)N[C@@H]1[C@H](Cc2cccc(-c3cccc(C(F)F)c3)c2F)N(C(=O)C23CC(C2)C3)CC1(F)F [Example 509, N-[(2S,3R)-1-(bicyclo[1.1.1]pentane-1-carbonyl)-2-{[3′-(difluoromethyl)-2-fluoro[1,1′-biphenyl]-3-yl]methyl}-4,4-difluoropyrrolidin-3-yl]ethanesulfonamide] — lower, 85%
- CC(C)C(=O)N1CC(F)(F)[C@H](NS(C)(=O)=O)[C@@H]1Cc1cccc(-c2ccccc2)c1F [Example 77, N-[(2S,3R)-4,4-difluoro-2-[(2-fluoro[1,1′-biphenyl]-3-yl)methyl]-1-(2-methylpropanoyl)pyrrolidin-3-yl]methanesulfonamide] — lower, 95%
- Cc1cccc(-c2cccc(C[C@H]3[C@@H](NS(=O)(=O)C4CC4)C(F)(F)CN3C(=O)N(C)C)c2F)c1 [Example 425, (2S,3R)-3-[(cyclopropanesulfonyl)amino]-4,4-difluoro-2-[(2-fluoro-3′-methyl[1,1′-biphenyl]-3-yl)methyl]-N,N-dimethylpyrrolidine-1-carboxamide] — lower, 95%
- CCS(=O)(=O)N[C@H]1[C@@H](F)CN(C(=O)C2CC2)[C@H]1Cc1cccc(-c2ccccc2)c1F [Example 239, N-{(2S,3R,4S)-1-(cyclopropanecarbonyl)-4-fluoro-2-[(2-fluoro[1,1′-biphenyl]-3-yl)methyl]pyrrolidin-3-yl}ethanesulfonamide] — lower, 102%
- CCS(=O)(=O)N[C@@H]1[C@H](Cc2cccc(-c3cc(F)cc(Cl)c3)c2F)N(C(=O)C2CC2)CC1(F)F [Example 248, N-[(2S,3R)-2-[(3′-chloro-2,5′-difluoro[1,1′-biphenyl]-3-yl)methyl]-1-(cyclopropanecarbonyl)-4,4-difluoropyrrolidin-3-yl]ethanesulfonamide] — lower, 90%
- CCS(=O)(=O)N[C@H]1[C@@H](F)CN(C(=O)N2CCC2)[C@H]1Cc1cccc(-c2cccc(F)c2)c1F [Example 211, N-{(2S,3R,4S)-1-(azetidine-1-carbonyl)-2-[(2,3′-difluoro[1,1′-biphenyl]-3-yl)methyl]-4-fluoropyrrolidin-3-yl}ethanesulfonamide] — lower, 94%
- CCS(=O)(=O)N[C@@H]1[C@H](Cc2cccc(-c3cccc(C(F)F)c3)c2F)N(C(=O)C(C)C)CC1(F)F [Example 507, N-[(2S,3R)-2-{[3′-(difluoromethyl)-2-fluoro[1,1′-biphenyl]-3-yl]methyl}-4,4-difluoro-1-(2-methylpropanoyl)pyrrolidin-3-yl]ethanesulfonamide] — lower, 97%
- CCS(=O)(=O)N[C@H]1[C@@H](F)CN(C(=O)C23CC(C2)C3)[C@H]1Cc1cccc(-c2cc(F)ccc2F)c1F [Example 306, N-{(2S,3R,4S)-1-(bicyclo[1.1.1]pentane-1-carbonyl)-4-fluoro-2-[(2,2′,5′-trifluoro[1,1′-biphenyl]-3-yl)methyl]pyrrolidin-3-yl}ethanesulfonamide] — lower, 89%
- CCS(=O)(=O)N[C@H]1[C@@H](F)CN(C(=O)N(C)C)[C@H]1Cc1cccc(-c2cc(F)ccc2F)c1F [Example 294, (2S,3R,4S)-3-[(ethanesulfonyl)amino]-4-fluoro-N,N-dimethyl-2-[(2,2′,5′-trifluoro[1,1′-biphenyl]-3-yl)methyl]pyrrolidine-1-carboxamide] — lower, 96%
- CC(C)C(=O)N1C[C@H](F)[C@H](NS(=O)(=O)C2CC2)[C@@H]1Cc1cccc(-c2cccc(F)c2)c1F [Example 382, N-[(2S,3R,4S)-2-[(2,3′-difluoro[1,1′-biphenyl]-3-yl)methyl]-4-fluoro-1-(2-methylpropanoyl)pyrrolidin-3-yl]cyclopropanesulfonamide] — lower, 102%
